Assay results reported in ChEMBL document CHEMBL1201862, “PubChem BioAssay data set” (2004).
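Compound exposure: 48 hours, 5 concentrations, 96-well plates. GI50: concentration for 50% inhibition of growth.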 Calls of active or inactive are those of the source. Cut-off read from the data, not from the text of the source: active = GI50 up to about 1.1 µM and inactive = higher.

Tests used:
Assay in all cases: NCI-60 cell line screen, 48 h
[1] = tested on: HL-60
[2] = tested on: KM12
[3] = tested on: SN12C
[4] = tested on: IGROV-1
[5] = tested on: UACC-257
[6] = tested on: OVCAR-5
[7] = tested on: HCT-15
[8] = tested on: HT-29
[9] = tested on: SR
[10] = tested on: A498
[11] = tested on: ACHN
[12] = tested on: HCT-116
[13] = tested on: LOX IMVI
[14] = tested on: OVCAR-4
[15] = tested on: PC-3
[16] = tested on: SW-620
[17] = tested on: EKVX
[18] = tested on: A549
[19] = tested on: NCI-H23
[20] = tested on: BT-549
[21] = tested on: K562
[22] = tested on: SK-MEL-28
[23] = tested on: M14
[24] = tested on: Hs-578T
[25] = tested on: SF-539
[26] = tested on: DU-145
[27] = tested on: MDA-MB-435
[28] = tested on: MDA-MB-231
[29] = tested on: MDA-N
[30] = tested on: NCI-H226
[31] = tested on: COLO 205
[32] = tested on: HOP-92
[33] = tested on: RXF 393
[34] = tested on: 786-0
[35] = tested on: NCI-H522
[36] = tested on: OVCAR-3
[37] = tested on: SK-MEL-2
[38] = tested on: SNB-75
[39] = tested on: NCI-H460
[40] = tested on: T47D
[41] = tested on: CCRF-CEM
[42] = tested on: Malme-3M
[43] = tested on: UO-31
[44] = tested on: MCF7
[45] = tested on: TK-10
[46] = tested on: U-251
[47] = tested on: SK-OV-3
[48] = tested on: OVCAR-8
[49] = tested on: HOP-62
[50] = tested on: SK-MEL-5
[51] = tested on: MOLT-4
[52] = tested on: SF-295
[53] = tested on: RPMI-8226
[54] = tested on: CAKI-1
[55] = tested on: HCC 2998
[56] = tested on: SF-268
[57] = tested on: NCI/ADR-RES
[58] = tested on: UACC-62
[59] = tested on: SNB-19

Compound: COC(=O)c1ccc(C)cc1CC1Cc2ccc(C)cc2C1=O (centres undefined)
- GI50 [1]: 3.47 µM (inactive)
- GI50 [2]: 4.27 µM (inactive)
- GI50 [3]: 12.2 µM (inactive)
- GI50 [4]: 7.87 µM (inactive)
- GI50 [5]: 13.2 µM (inactive)
- GI50 [6]: 19.5 µM (inactive)
- GI50 [7]: 3.24 µM
- GI50 [8]: 3.47 µM (inactive)
- GI50 [9]: 3.05 µM (inactive)
- GI50 [10]: 1.53 µM (inactive)
- GI50 [11]: 22 µM (inactive)
- GI50 [12]: 5.15 µM (inactive)
- GI50 [13]: 5.25 µM (inactive)
- GI50 [14]: 16.1 µM (inactive)
- GI50 [15]: 12.1 µM (inactive)
- GI50 [16]: 4.17 µM (inactive)
- GI50 [17]: 8.04 µM (inactive)
- GI50 [18]: 11 µM (inactive)
- GI50 [19]: 15.7 µM (inactive)
- GI50 [20]: 12.2 µM (inactive)
- GI50 [21]: 3.21 µM (inactive)
- GI50 [22]: 8.43 µM (inactive)
- GI50 [23]: 5.7 µM (inactive)
- GI50 [24]: 15 µM (inactive)
- GI50 [25]: 5.6 µM (inactive)
- GI50 [26]: 22.9 µM (inactive)
- GI50 [27]: 1.63 µM (inactive)
- GI50 [28]: 14.9 µM (inactive)
- GI50 [29]: 1.75 µM (inactive)
- GI50 [30]: 6.04 µM (inactive)
- GI50 [31]: 4.54 µM (inactive)
- GI50 [32]: 23 µM (inactive)
- GI50 [33]: 10.1 µM (inactive)
- GI50 [34]: 13.7 µM (inactive)
- GI50 [35]: 1.47 µM (inactive)
- GI50 [36]: 6.17 µM (inactive)
- GI50 [37]: 11.9 µM (inactive)
- GI50 [38]: 5.69 µM (inactive)
- GI50 [39]: 6.61 µM (inactive)
- GI50 [40]: 5.55 µM (inactive)
- GI50 [41]: 9.91 µM (inactive)
- GI50 [42]: 5.24 µM (inactive)
- GI50 [43]: 19.9 µM (inactive)
- GI50 [44]: 4.39 µM (inactive)
- GI50 [45]: 13 µM (inactive)
- GI50 [46]: 4.07 µM (inactive)
- GI50 [47]: 9.08 µM (inactive)
- GI50 [48]: 12.2 µM (inactive)
- GI50 [49]: 22 µM (inactive)
- GI50 [50]: 7.29 µM (inactive)
- GI50 [51]: 5.68 µM (inactive)
- GI50 [52]: 10.7 µM (inactive)
- GI50 [53]: 7.91 µM (inactive)
- GI50 [54]: 7.13 µM (inactive)
- GI50 [55]: 10.1 µM (inactive)
- GI50 [56]: 12.2 µM (inactive)
- GI50 [57]: 2.59 µM (inactive)
- GI50 [58]: 9.53 µM (inactive)
- GI50 [59]: 6.24 µM (inactive)
